From patent publication US9006228B2 (Merck Sharp & Dohme Corp., priority 2011, dated 2015)

target: T1, human GPR119 (Homo sapiens, UniProt Q8TDV5); assay: Measurement of GPR119 signaling (cAMP assay; LANCE kit or HTRF) in HEK293 cells stably transfected with human GPR119; format: cell-based; conditions: agonist-stimulated cAMP in HEK293 cells expressing human GPR119
T1 sequence (Q8TDV5 1-308 limits assumed): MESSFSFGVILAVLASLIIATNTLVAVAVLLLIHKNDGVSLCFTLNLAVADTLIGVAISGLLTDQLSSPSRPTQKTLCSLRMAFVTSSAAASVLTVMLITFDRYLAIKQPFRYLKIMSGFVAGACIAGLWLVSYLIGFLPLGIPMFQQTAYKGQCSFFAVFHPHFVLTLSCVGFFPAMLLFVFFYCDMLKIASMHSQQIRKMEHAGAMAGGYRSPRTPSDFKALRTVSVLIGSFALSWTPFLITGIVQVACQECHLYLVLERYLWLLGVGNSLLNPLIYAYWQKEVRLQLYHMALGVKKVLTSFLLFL
Protocol: Measurement of GPR119 Signaling Using LANCE 384-Well cAMP Kit
The adenylate cyclase assay was constructed following the LANCE™ cAMP Kit (Perkin Elmer, AD0264) instructions. […] The reaction was stopped by incubating with the supplied detection buffer containing the europium chelate of the Eu-SA/Biotin-cAMP tracer for 3 hours. The assay was performed in duplicate in a 384 well plate for duplicate plates. Fluorescence at 665 nm was measured using a PHERAstar instrument. Basal activity was determined using a DMSO control and maximum response was defined as cAMP stimulation produced by an internal agonist control. Standard cAMP concentrations were assayed concurrently for conversion of fluorescence signal to cAMP level. The data was analyzed using 4-parameter curve fit in Microsoft Excel.
Measurement of GPR119 Signaling Using a Cyclic AMP (cAMP) Homogenous Time Resolved Fluorescence (HTRF) Assay
Chinese hamster ovary (CHO) cell lines stably transfected with the permissive guanine nucleotide binding protein alpha 15 (Gα15) and murine GPR119 were maintained in DMEM media containing FBS, penicillin-streptomycin, puromycin, and G418 (geneticin). […] Agonist activation of the GPR119 receptor was measured in receptor transfected cells described above, treated with compounds of this invention, using a commercial homogenous time resolved fluorescence (HTRF) kit for measurement of cAMP (CisBio, Bedford, Mass.). The assay was performed in 96-well half-volume plates (murine) or 384-well plates (human) following the manufacturers instructions. Briefly, suspended cells were incubated with a dose titration of test compound at RT for 60 min, lysed, and incubated with HTRF reagents for an additional 60 min. The plate was read using an Envision multilabel reader (Perkin Elmer) adjusted to read time resolved fluorescence and the cAMP concentrations were extrapolated from a cAMP calibration curve. […] The concentration of test compound required to stimulate a half-maximal response (EC50), and efficacy as compared to an internal agonist control, was determined from a sigmoidal 4-parameter curve fit of the resulting plot of normalized activity versus compound concentration.

Row | SMILES | EC50 [nM]
1 | CCc1cnc(N2CCC([C@H]3C[C@H]3COCc3ccc(S(C)(=O)=O)c(F)c3)CC2)nc1 [Example 40, 5-ethyl-2-{4-[(1R,2R)-2-({[3-fluoro-4-(methylsulfonyl)benzyl]oxy}methyl)cyclopropyl]piperidin-1-yl}pyrimidine] | 0.2
2 | CCc1cnc(N2CCC([C@H]3C[C@H]3COCc3ccc(CCO)cc3)CC2)nc1 [Example 60, 2-{4-[({(1R,2R)-2-[1-(5-ethylpyrimidin-2-yl)piperidin-4-yl]cyclopropyl}methoxy)methyl]phenyl}ethanol] | 2.5
3 | CS(=O)(=O)c1ccc(COC[C@@H]2C[C@@H]2C2CCN(C(=O)OCC3CC3)CC2)cc1 [Example 13, cyclopropylmethyl 4-[(1R,2R)-2-({[4-(methylsulfonyl)benzyl]oxy}methyl)cyclopropyl]piperidine-1-carboxylate] | 3.2
4 | O=C(c1ccc(COC[C@@H]2C[C@@H]2C2CCN(c3ncc(Cl)cn3)CC2)cc1F)C1CC1 [Example 51] | 3.7
5 | COc1cnc(N2CCC([C@H]3C[C@H]3COCc3ccc(S(C)(=O)=O)cn3)CC2)nc1 [Example 6, 5-methoxy-2-{4-[(1R,2R)-2-({[5-(methylsulfonyl)pyridin-2-yl]methoxy}methyl)cyclopropyl]piperidin-1-yl}pyrimidine] | 15
6 | CCc1cnc(N2CCC([C@H]3C[C@H]3COCc3ccc(-c4cnc(OC)nc4)cc3F)CC2)nc1 [Example 104, 5-{4-[({(1R,2R)-2-[1-(5-ethylpyrimidin-2-yl)piperidin-4-yl]cyclopropyl}methoxy)methyl]-3-fluorophenyl}-2-methoxypyrimidine] | 8.8
7 | CCc1cnc(N2CCC([C@H]3C[C@H]3COCc3ccc(S(=O)(=O)CC[C@H](C)O)cc3)CC2)nc1 [Example 64] | 0.6
8 | CCc1noc(N2CCC([C@H]3C[C@H]3COCc3ccc(S(C)(=O)=O)c(F)c3)CC2)n1 [Example 36, 1-(3-ethyl-1,2,4-oxadiazol-5-yl)-4-[(1R,2R)-2-({[3-fluoro-4-(methylsulfonyl)benzyl]oxy}methyl)cyclopropyl]piperidine] | 1.9
9 | CC1(OC(=O)N2CCC([C@H]3C[C@H]3COCc3ccc(S(C)(=O)=O)c(F)c3)CC2)CC1 [Example 43, 1-methylcyclopropyl 4-[(1R,2R)-2-({[3-fluoro-4-(methylsulfonyl)benzyl]oxy}methyl)cyclopropyl] piperidine-1-carboxylate] | 4.7
10 | CC(=O)CSc1ccc(COC[C@@H]2C[C@@H]2C2CCN(C(=O)OC(C)(C)C)CC2)cc1 [Example 91] | 14.9
11 | CCc1cnc(N2CCC([C@H]3C[C@H]3COCc3ccc(-c4ccnc(OC)n4)cc3F)CC2)nc1 [Example 106, 4-{4-[({(1R,2R)-2-[1-(5-ethylpyrimidin-2-yl)piperidin-4-yl]cyclopropyl}methoxy)methyl]-3-fluorophenyl}-2-methoxypyrimidine] | 2.9
12 | CCc1cnc(N2CCC([C@H]3C[C@H]3COCc3ccc(S(=O)(=O)CCO)cn3)CC2)nc1 [Example 88, 2-({6-[({(1R,2R)-2-[1-(5-ethylpyrimidin-2-yl)piperidin-4-yl]cyclopropyl}methoxy)methyl]pyridin-3-yl}sulfonyl)ethanol] | 17
13 | O=S(=O)(CCO)c1ccc(COC[C@@H]2C[C@@H]2C2CCN(c3ncc(C4CC4)cn3)CC2)nc1 [Example 90, 2-({6-[({(1R,2R)-2-[1-(5-cyclopropylpyrimidin-2-yl)piperidin-4-yl]cyclopropyl}methoxy)methyl]pyridin-3-yl}sulfonyl)ethanol] | 23
14 | CCc1cnc(N2CCC([C@H]3C[C@H]3COCc3ccc(C[C@H](C)O)cc3)CC2)nc1 [Example 59, (2S)-1-{4-[({(1R,2R)-2-[1-(5-ethylpyrimidin-2-yl)piperidin-4-yl]cyclopropyl}methoxy)methyl]phenyl}propan-2-ol] | 1.6
15 | CS(=O)(=O)c1ccc(COC[C@@H]2C[C@@H]2C2CCN(c3ncc(C4CC4)cn3)CC2)cc1 [Example 18, 5-cyclopropyl-2-{4-[(1R,2R)-2-({[4-(methylsulfonyl)benzyl]oxy}methyl)cyclopropyl]piperidin-1-yl}pyrimidine] | 1
16 | CCS(=O)(=O)c1ccc(COC[C@@H]2C[C@@H]2C2CCN(c3nc(C4CCC4)no3)CC2)cc1 [Example 32, 1-(3-cyclobutyl-1,2,4-oxadiazol-5-yl)-4-[(1R,2R)-2-({[4-(ethylsulfonyl)benzyl]oxy}methyl)cyclopropyl]piperidine] | 0.8
17 | CC(C)OC(=O)N1CCC([C@H]2C[C@H]2COCc2ccc(S(C)(=O)=O)cc2)CC1 [Example 9, isopropyl 4-[(1R,2R)-2-({[4-(methylsulfonyl)benzyl]oxy}methyl)cyclopropyl]piperidine-1-carboxylate] | 16
18 | CCc1cnc(N2CCC([C@H]3C[C@H]3COCc3ccc(-n4cnnn4)cc3)CC2)nc1 [Example 61, 5-ethyl-2-{4-[(1R,2R)-2-({[4-(1H-tetrazol-1-yl)benzyl]oxy}methyl)cyclopropyl]piperidin-1-yl}pyrimidine] | 0.07
19 | O=S(=O)(CCO)c1ccc(COC[C@@H]2C[C@@H]2C2CCN(c3ncc(Cl)cn3)CC2)nc1 [Example 86, 2-({6-[({(1R,2R)-2-[1-(5-chloropyrimidin-2-yl)piperidin-4-yl]cyclopropyl}methoxy)methyl]pyridin-3-yl}sulfonyl)ethanol] | 22
20 | Cc1cnc(N2CCC([C@H]3C[C@H]3COCc3ccc(S(C)(=O)=O)cn3)CC2)nc1 [Example 2, 5-methyl-2-{4-[(1R,2R)-2-({[5-(methylsulfonyl)pyridin-2-yl]methoxy}methyl)cyclopropyl]piperidin-1-yl}pyrimidine] | 10.8

Further lines, results first:

Row | EC50 [nM] | SMILES
21 | 11.4 | COCc1noc(N2CCC([C@H]3C[C@H]3COCc3ccc(CC(=O)N4CCC4)c(F)c3)CC2)n1 [Example 144, 1-(azetidin-1-yl)-2-(2-fluoro-4-((((1R,2R)-2-(1-(3-(methoxymethyl)-1,2,4-oxadiazol-5-yl)piperidin-4-yl)cyclopropyl)methoxy)methyl)phenyl)ethanone]
22 | 1.9 | CCc1cnc(N2CCC([C@H]3C[C@H]3COCc3ccc(-c4cncnc4)cc3)CC2)nc1 [Example 120]
23 | 6.3 | CC(C)c1noc(N2CCC([C@H]3C[C@H]3COCc3ccc(CC(=O)N4CC(O)C4)c(F)c3)CC2)n1 [Example 143, 2-(2-fluoro-4-((((1R,2R)-2-(1-(3-isopropyl-1,2,4-oxadiazol-5-yl)piperidin-4-yl)cyclopropyl)methoxy)methyl)phenyl)-1-(3-hydroxyazetidin-1-yl)ethanone]
24 | 1.03 | COC(C)c1cnc(N2CCC([C@H]3C[C@H]3COCc3ccc(S(C)(=O)=O)c(F)c3)CC2)nc1 (single isomer, unassigned) [Example 131]
25 | 0.72 | COC(C)c1cnc(N2CCC([C@H]3C[C@H]3COCc3ccc(S(C)(=O)=O)c(F)c3)CC2)nc1 (single isomer, unassigned) [Example 130]
26 | 9.8 | COCc1noc(N2CCC([C@H]3C[C@H]3COCc3ccc(-n4cnnn4)cc3F)CC2)n1 [Example 135, 5-(4-((1R,2R)-2-((2-fluoro-4-(1H-tetrazol-1-yl)benzyloxy)methyl)cyclopropyl)piperidin-1-yl)-3-(methoxymethyl)-1,2,4-oxadiazole]
27 | 9.8 | CCc1cnc(N2CCC([C@H]3C[C@H]3COCc3ccc(-c4cnccn4)cc3)CC2)nc1 [Example 123]
28 | 1.1 | CCc1cnc(N2CCC([C@H]3C[C@H]3COCc3ccc(-c4cccnn4)cc3)CC2)nc1 [Example 122]
29 | 2.2 | COC1CN(C(=O)Cc2ccc(COC[C@@H]3C[C@@H]3C3CCN(c4nc(C(C)C)no4)CC3)c(F)c2)C1 [Example 138, 2-(3-fluoro-4-((((1R,2R)-2-(1-(3-isopropyl-1,2,4-oxadiazol-5-yl)piperidin-4-yl)cyclopropyl)methoxy)methyl)phenyl)-1-(3-methoxyazetidin-1-yl)ethanone]
30 | 4 | CCc1cnc(N2CCC([C@H]3C[C@H]3COCc3ccc(-c4cnc(C)s4)cc3F)CC2)nc1 [Example 111, 5-ethyl-2-{4-[(1R,2R)-2-({[2-fluoro-4-(2-methyl-1,3-thiazol-5-yl)benzyl]oxy}methyl)cyclopropyl]piperidin-1-yl}pyrimidine]
